Experimental data: PMC11144398, “Crizotinib inhibits the metabolism of tramadol by non-competitive suppressing the activities of CYP2D1 and CYP3A2” (PeerJ, 2024)

Experiments:
CYP2D1 = target: T1, CYP2D1 (Rattus norvegicus, UniProt P10633); experiment: Activity of CYP2D1 in liver microsomes of treated rats (dextromethorphan probe); type: in vitro ADME
T1 construct: All liver tissue samples were extracted into liver microsomes by homogenization and centrifugation; from tissue; host or cells: liver microsomes of Sprague-Dawley rats (control or dosed with crizotinib)
T1 sequence (P10633 1-504): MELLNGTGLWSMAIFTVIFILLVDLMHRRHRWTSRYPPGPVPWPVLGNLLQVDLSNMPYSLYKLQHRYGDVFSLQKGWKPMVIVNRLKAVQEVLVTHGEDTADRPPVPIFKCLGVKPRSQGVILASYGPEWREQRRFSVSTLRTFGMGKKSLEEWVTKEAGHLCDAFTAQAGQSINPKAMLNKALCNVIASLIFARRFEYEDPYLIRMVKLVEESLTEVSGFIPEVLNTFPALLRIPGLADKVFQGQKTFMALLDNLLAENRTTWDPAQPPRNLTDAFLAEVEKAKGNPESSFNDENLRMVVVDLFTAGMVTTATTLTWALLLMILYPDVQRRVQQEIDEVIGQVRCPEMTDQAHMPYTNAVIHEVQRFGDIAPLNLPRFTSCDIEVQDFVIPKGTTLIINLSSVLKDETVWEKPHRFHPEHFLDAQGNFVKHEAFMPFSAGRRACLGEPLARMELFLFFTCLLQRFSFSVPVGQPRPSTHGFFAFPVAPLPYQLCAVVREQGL
Method: Nine rats were randomly divided into three groups (n = 3): group E received 0.5% CMC-Na for 7 days; group F received 45 mg/kg crizotinib for 6 days; and group G received 45 mg/kg of crizotinib for 7 days. […] The blood, liver, kidney, and small intestine were harvested within 10 min and flash-frozen in liquid nitrogen before being transferred to −80 °C for later use.
All liver tissue samples were extracted into liver microsomes by homogenization and centrifugation, following the same operational steps as previously reported ([Simpson, 2010]). A new incubation system was established, which included 2 µL dextromethorphan or midazolam (the probe substrate of CYP2D1 or CYP3A2), 2 uL RLM (0.2 mg/mL) from different groups, 186 µL 1xPBS buffer, and 10 µL NADPH (1 mM). […] UPLC-MS/MS was used to detect the concentration of dextrorphan and 1-hydroxymidazolam to determine whether the activities of CYP2D1 and CYP3A2 in the liver were affected by crizotinib.

[1] = Pharmacokinetics of tramadol and O-desmethyl tramadol in SD rats with or without crizotinib; conditions: single dose of crizotinib 45 mg/kg, tramadol 20 mg/kg
Text: Ultra-performance liquid chromatography-tandem mass spectrometry (UPLC-MS/MS) was utilized to measure the concentration of both tramadol and O-desmethyl tramadol. Separation was achieved using a Waters Acquity UPLC BEH C18 column, with dimensions of 2.1 mm × 50 mm and 1.7-µm particle size (Waters Corp., Milford, MA, USA), and quantitation was completed using a Waters XEVO TQD triple quadruple mass spectrometer. The mobile phase was composed of 0.1% formic acid (A) and ACN (B), and the gradient elution was carried out with a flow rate of 0.4 mL/min, following the procedure: 90–10% A (0–1.4 min), 10–90% A (1.4–1.5 min), and 90% A (1.5–2.0 min). Positive mode was used to detect the analytes with the following transitions: m/z 264.2 →58.0, m/z 250.2 →58.2, and m/z 285.0 →154.0 for tramadol, O-desmethyl tramadol, and diazepam (used as an internal standard, IS), respectively. The collision energy was 20 V for tramadol and O-desmethyl tramadol, and 25 V for diazepam. The standard for tramadol and O-desmethyl tramadol were dissolved in a small amount of DMSO (the concentration was 1 mg/mL) then diluted with acetonitrile (the final concentration was 1 ng/mL–1,000 ng/mL). Diazepam was diluted with methanol gradually to 500 ng/mL).
SD male rats (280 ± 15 g) were purchased from the Shanghai Animal Experimental Center. Before the experiment, the rats were kept in the animal room for two weeks with adequate water and food in order to adapt to the new environment. The room temperature was kept at 20–25 °C and the humidity was kept at 50%–65%. The change period of light and dark conditions was 12 h, which simulates the change of day and night. All animal experiments were approved by the Ethics Committee of Wenzhou Medical University (Approval number: xmsq2022-0621).
Generally speaking, only when at least five or more animals are involved in the experiment can the results be convincing. Thus, twenty SD rats were randomly divided into four groups with five animals per group: group A received a single dose of 20 mg/kg of tramadol; group B received a single dose of 45 mg/kg of crizotinib and 20 mg/kg of tramadol; group C received multiple doses of 0.5% carboxymethylcellulose sodium salt (CMC-Na) for 7 days and a single dose of 20 mg/kg of tramadol; and group D received multiple doses of 45 mg/kg of crizotinib for 7 days and a single dose of 20 mg/kg of tramadol. Prior to the experiment, all rats were fasted for 12 h but allowed free access to water. Once the experiment began, 0.5% CMC-Na and crizotinib were administered to groups C and D for 7 days, respectively, then to groups A and B on the last day of the experiment. After 30 min, all rats were orally administered 20 mg/kg of tramadol. Blood samples were collected from the tail vein at 5 min, 15 min, 30 min, 1 h, 2 h, 3 h, 4 h, 6 h, 8 h, 10 h, 12 h, and 24 h following tramadol administration. […] The samples were centrifuged at 2400 × g for 10 min to obtain serum. Each 50 µL serum was mixed with 150 µL ACN and 20 µL IS (500 ng/mL). After vortexing for 2 min and centrifugation at 16200 × g for 10 min at 4 °C, the supernatant was obtained, then we used UPLC-MS/MS analysis to detect the concentration of tramadol and O-desmethyl tramadol. After the experiment, all the animals were euthanized by 5% isoflurane inhalation anesthesia.
The Michaelis–Menten, IC50, and Lineweaver-Burk plots were generated using GraphPad Prism 6.0 software (GraphPad Software, Boston, MA, USA) with corresponding values for Km, IC50, and Ki (inhibition constant).

C[C@@H](Oc1cc(-c2cnn(C3CCNCC3)c2)cnc1N)c1c(Cl)ccc(F)c1Cl [crizotinib]
metabolic rate of dextromethorphan (CYP2D1 activity) (CYP2D1; RLM from crizotinib-treated rats (45 mg/kg), dextromethorphan 25 µM): decreased to different extents | metabolic rate of dextromethorphan (CYP2D1 activity) (CYP2D1; crizotinib administered for seven days): significant decrease | effect on pharmacokinetic parameters of O-desmethyl tramadol [1]: no significant differences
